Assay results taken from patent US7507739B2, “6-[(substituted)phenyl]triazolopyrimidines as anticancer agents” (Wyeth, priority 2003, dated 2009).
Marks after values point to notes of the source that are not given here.

Legend:
[1] = tested on: LoVo Human Colon Carcinoma; test: Human tumor xenograft test, LoVo; format: in vivo, athymic mice; conditions: for T/C on day 0 / T/C on day 7 / T/C on day 14 / T/C on day 21 / T/C on day 28 / T/C on day 35: days 1, 7, 14
Procedure: (§1) The ability of compounds of this invention to inhibit tumor growth in animals is studied in the athymic mouse xenograft standard pharmacological test. Female nu/nu mice in an outbred albino background are obtained from Charles River Laboratories (Wilmington, Mass.). Animals are injected subcutaneously on the flank with the desired tumor cell suspension. Several days later, mice with tumors of approximately 150 mm^3 are selected from those injected (staged) and randomly distributed into groups of 5-10. The day of staging is called day 0. Compounds of the invention, usually formulated in saline (exceptions are noted in tables), are administered to animals by intravenous injection or oral gavage on various schedules starting on day 0 or 1, as noted in the tables. The control group in each experiment is dosed with vehicle on the same schedule. Tumor size is measured every 3-7 days with calipers in two orthogonal dimensions, and tumor volume is calculated from the formula volume=[(length×width^2)/2].
(§2) Tumor/Control (T/C) is obtained by dividing the mean tumor volume of the treated group by the mean tumor volume of the control group on each measurement day. A treatment dose is defined as active if it produced a statistically significant T/C of 0.50 or less. A p value≦0.05, determined by one-side Student's t-test, is required for statistical significance. A treatment dose is defined as toxic if more than 10% of the animals died from a compound-related toxicity.

[2] = tested on: LOX Human Melanoma; test: Human tumor xenograft test, LOX; format: in vivo, athymic mice; conditions: for tumor growth inhibition (activity call): LOX melanoma; for T/C on day 0 / T/C on day 7 / T/C on day 13: LOX, days 1, 5, 9, 13
Procedure: as §1, §2

[3] = tested on: U87-MG Human Glioblastoma; test: Human tumor xenograft test, U87-MG; format: in vivo, athymic mice; conditions: for T/C on day 0 / T/C on day 3 / T/C on day 7 / T/C on day 10 / T/C on day 13 / T/C on day 17: U87-MG, days 1, 5, 9
Procedure: as §1, §2

[4] = tested on: DLD1 Human Colon Carcinoma; test: Human tumor xenograft test, DLD1; format: in vivo; conditions: days 1, 5, 9, 13
Procedure: as §1, §2

[5] = tested on: A549 Human Non-Small Cell Lung Carcinoma; test: Human tumor xenograft test, A549; format: in vivo, athymic mice; conditions: days 1, 5, 9, 13, 17, 21, 25, 29
Procedure: as §1, §2

[6] = 1 mg/kg intravenously on days 1, 5, 9, and 13
[7] = 6 and 3 mg/kg intravenously on days 1, 5, 9, and 13

C[C@H](Nc1c(-c2c(F)cc(OCCCO)cc2F)c(Cl)nc2ncnn12)C(F)(F)F [Example 20, 3-[4-(5-Chloro-7-{[(1S)-2,2,2-trifluoro-1-methylethyl]amino}[1,2,4]triazolo[1,5-a]pyrimidin-6-yl)-3,5-difluorophenoxy]propan-1-ol]
T/C on day 0 ([1]; 30 mg/kg PO): 1.00
T/C on day 7 ([1]; 30 mg/kg PO): 0.37*
T/C on day 14 ([1]; 30 mg/kg PO): 0.35**
T/C on day 21 ([1]; 30 mg/kg PO): 0.35
T/C on day 28 ([1]; 30 mg/kg PO): 0.28
T/C on day 35 ([1]; 30 mg/kg PO): 0.35
T/C on day 0 ([1]; 50 mg/kg PO): 1.00
T/C on day 7 ([1]; 50 mg/kg PO): 0.27**
T/C on day 14 ([1]; 50 mg/kg PO): 0.46**
T/C on day 21 ([1]; 50 mg/kg PO): 0.33**
T/C on day 28 ([1]; 50 mg/kg PO): 0.29**
T/C on day 35 ([1]; 50 mg/kg PO): 0.31*
tumor growth inhibition (activity call) ([1]; orally on days 1, 7 and 14 at 50 and 30 mg/kg): active

CNCCCOc1cc(F)c(-c2c(Cl)nc3ncnn3c2NCC(F)(F)F)c(F)c1.Cl [Example 3a, 5-Chloro-6-{2,6-difluoro-4-[3-(methylamino)propoxy]phenyl}-N-(2,2,2-trifluoroethyl)[1,2,4]triazolo[1,5-a]pyrimidin-7-amine hydrogen chloride Salt]
tumor growth inhibition (activity call) [2, 6]: not at 1 mg/kg
tumor growth inhibition (activity call) [2, 7]: active
T/C on day 0 ([2]; 1 mg/kg IV): 1.00
T/C on day 7 ([2]; 1 mg/kg IV): 0.77
T/C on day 13 ([2]; 1 mg/kg IV): 0.85
T/C on day 0 ([2]; 3 mg/kg IV): 1.00
T/C on day 7 ([2]; 3 mg/kg IV): 0.34*
T/C on day 13 ([2]; 3 mg/kg IV): 0.38
T/C on day 0 ([2]; 6 mg/kg IV): 1.00
T/C on day 7 ([2]; 6 mg/kg IV): 0.22**
T/C on day 13 ([2]; 6 mg/kg IV): 0.07**
T/C on day 0 ([3]; 10 mg/kg PO): 0.99
T/C on day 3 ([3]; 10 mg/kg PO): 1.08
T/C on day 7 ([3]; 10 mg/kg PO): 0.85
T/C on day 10 ([3]; 10 mg/kg PO): 0.69**
T/C on day 13 ([3]; 10 mg/kg PO): 0.52**
T/C on day 17 ([3]; 10 mg/kg PO): 0.51**
T/C on day 0 ([3]; 20 mg/kg PO): 1.01
T/C on day 3 ([3]; 20 mg/kg PO): 0.90
T/C on day 7 ([3]; 20 mg/kg PO): 0.73
T/C on day 10 ([3]; 20 mg/kg PO): 0.63**
T/C on day 13 ([3]; 20 mg/kg PO): 0.42**
T/C on day 17 ([3]; 20 mg/kg PO): 0.39**
T/C on day 0 ([3]; 40 mg/kg PO): 1.02
T/C on day 3 ([3]; 40 mg/kg PO): 0.73
T/C on day 7 ([3]; 40 mg/kg PO): 0.65**
T/C on day 10 ([3]; 40 mg/kg PO): 0.48**
T/C on day 13 ([3]; 40 mg/kg PO): 0.30**
T/C on day 17 ([3]; 40 mg/kg PO): 0.20**
tumor growth inhibition (activity call) ([3]; U-87 MG, oral dosing, 40, 20, and 10 mg/kg): active
T/C on day 0 ([4]; DLD1, 10 mg/kg IV): 1.00
T/C on day 7 ([4]; DLD1, 10 mg/kg IV): 0.77
T/C on day 14 ([4]; DLD1, 10 mg/kg IV): 0.75
T/C on day 21 ([4]; DLD1, 10 mg/kg IV): 0.84
T/C on day 0 ([4]; DLD1, 20 mg/kg IV): 1.00
T/C on day 7 ([4]; DLD1, 20 mg/kg IV): 0.55
T/C on day 14 ([4]; DLD1, 20 mg/kg IV): 0.56
T/C on day 21 ([4]; DLD1, 20 mg/kg IV): 0.73
T/C on day 0 ([4]; DLD1, 25 mg/kg IV): 1.00
T/C on day 7 ([4]; DLD1, 25 mg/kg IV): 0.59
T/C on day 14 ([4]; DLD1, 25 mg/kg IV): 0.46
T/C on day 21 ([4]; DLD1, 25 mg/kg IV): 0.60

CN(C)CCCOc1cc(F)c(-c2c(Cl)nc3ncnn3c2NCC(F)(F)F)c(F)c1.Cl [Example 4a, 5-Chloro-6-{4-[3-(dimethylamino)propoxy]-2,6-difluorophenyl}-N-(2,2,2-trifluoroethyl)[1,2,4]triazolo[1,5-a]pyrimidin-7-amine Hydrogen chloride Salt]
tumor growth inhibition (activity call) [2, 6]: not at 1 mg/kg
tumor growth inhibition (activity call) [2, 7]: active
T/C on day 0 ([2]; 1 mg/kg IV): 1.00
T/C on day 7 ([2]; 1 mg/kg IV): 0.80
T/C on day 13 ([2]; 1 mg/kg IV): 0.79
T/C on day 0 ([2]; 3 mg/kg IV): 1.00
T/C on day 7 ([2]; 3 mg/kg IV): 0.20**
T/C on day 13 ([2]; 3 mg/kg IV): 0.19**
T/C on day 0 ([2]; 6 mg/kg IV): 1.00
T/C on day 7 ([2]; 6 mg/kg IV): 0.21**
T/C on day 13 ([2]; 6 mg/kg IV): 0.14**
T/C on day 0 ([5]; A549, 10 mg/kg IV): 0.98
T/C on day 7 ([5]; A549, 10 mg/kg IV): 0.81
T/C on day 14 ([5]; A549, 10 mg/kg IV): 0.74
T/C on day 21 ([5]; A549, 10 mg/kg IV): 0.68
T/C on day 27 ([5]; A549, 10 mg/kg IV): 0.80
T/C on day 35 ([5]; A549, 10 mg/kg IV): 0.79
T/C on day 0 ([5]; A549, 20 mg/kg IV): 0.99
T/C on day 7 ([5]; A549, 20 mg/kg IV): 0.86
T/C on day 14 ([5]; A549, 20 mg/kg IV): 0.80
T/C on day 21 ([5]; A549, 20 mg/kg IV): 0.72
T/C on day 27 ([5]; A549, 20 mg/kg IV): 0.78
T/C on day 35 ([5]; A549, 20 mg/kg IV): 0.77
T/C on day 0 ([5]; A549, 40 mg/kg IV): 0.97
T/C on day 7 ([5]; A549, 40 mg/kg IV): 0.71
T/C on day 14 ([5]; A549, 40 mg/kg IV): 0.53**
T/C on day 21 ([5]; A549, 40 mg/kg IV): 0.46**
T/C on day 27 ([5]; A549, 40 mg/kg IV): 0.52**
T/C on day 35 ([5]; A549, 40 mg/kg IV): 0.47**
T/C on day 0 ([4]; DLD1, 10 mg/kg IV): 1.00
T/C on day 7 ([4]; DLD1, 10 mg/kg IV): 0.56
T/C on day 14 ([4]; DLD1, 10 mg/kg IV): 0.68
T/C on day 21 ([4]; DLD1, 10 mg/kg IV): 0.74
T/C on day 0 ([4]; DLD1, 20 mg/kg IV): 1.00
T/C on day 7 ([4]; DLD1, 20 mg/kg IV): 0.55
T/C on day 14 ([4]; DLD1, 20 mg/kg IV): 0.44
T/C on day 21 ([4]; DLD1, 20 mg/kg IV): 0.61
T/C on day 0 ([4]; DLD1, 25 mg/kg IV): 1.00
T/C on day 7 ([4]; DLD1, 25 mg/kg IV): 0.63
T/C on day 14 ([4]; DLD1, 25 mg/kg IV): 0.49
T/C on day 21 ([4]; DLD1, 25 mg/kg IV): 0.48
